Laboratory results published in patent US20240293483A1, “PROBIOTIC COMPOSITION FOR THE TREATMENT OF INCREASED INTESTINAL PERMEABILITY” (AB-BIOTICS, S.A., priority 2021, published 2024).

How the values were obtained:
[1] = test system: polyP; experiment: Polyphosphate (polyP) production assay: hypochlorite extraction from cells, DAPI fluorescence quantification
Method: For polyP production assay, malic enzyme induction (MEI) medium containing (per liter, w/v) 0.5% yeast extract, 0.5% tryptone, 0.4% K2HPO4, 0.5% KH2PO4, 0.02% MgSO4·7H2O, 0.005% MnSO4, 1 ml of Tween 80, 0.05% cysteine, and 0.5% glucose was used (Alcántara et al. 2014). The strains unable to grow in MEI were grown in MRScys. Cultures were inoculated at OD (595 nm) 0.1 and each strain was grown under the conditions indicated above. Growth was monitored by measuring OD for 16 h.
PolyP was isolated from cells by its resistance to hydrolysis with sodium hypochlorite as previously described (Alcántara et al. 2014). Cells were harvested by centrifugation and lysed in 1 ml of 5% sodium hypochlorite with gentle agitation for 45 min at room temperature. Insoluble material was pelleted by centrifugation at 16,000 g for 5 min at 4° C. and washed twice with 1 ml of 1.5 M NaCl plus 1 mM EDTA at 16,000 g for 5 min at 4° C. PolyP was extracted from the pellets with two consecutive washes with 1 ml of water and a centrifugation step at 16,000 g for 5 min at 4° C. between them. PolyP in the pooled water extracts was precipitated by adding 0.1 M NaCl and 1 volume of ethanol, followed by incubation on ice for 1 h. After centrifugation at 16,000 g for 10 min, the polyP pellet was resuspended in 50 μL of water.
A standard curve relating phosphate amount to fluorescence intensity was built to quantify the extracted polyP from the strains. As a first step, serial dilutions of a sample of polyP isolated from the polyphosphate-producer control strain Lactiplantibacillus plantarum strain WCFS1 (Alcántara et al. 2014) were prepared. Second, the dilutions were hydrolyzed with a volume of 2 M HCl, incubated at 95° C. for 15 min to release phosphate and then neutralized by adding […] of 2 M NaOH. Third, the released phosphate from each dilution was quantified with BIOMOL Green Kit (Enzo Life Sciences) as recommended by the manufacturer. In parallel, the released phosphate from each dilution was dyed using 4′,6-diamidino-2-phenylindole (DAPI) at a final concentration of 10 μM in 50 mM Tris-HCl pH 7.5, 50 mM NaCl buffer and fluorescence was measured with an excitation wavelength of 415 nm and emission at 550 nm in a fluorimeter. Finally, a standard curve was built with phosphate values and the corresponding fluorescence values obtained.
Once the standard curve is obtained, polyP amounts from the samples can be quantified according to fluorescence values, without the need of using BIOMOL Green kit. Therefore, the quantification of polyP from the strain samples was indirectly measured by DAPI fluorescence using the standard curve. Firstly, the extracted polyP was measured by fluorescence using DAPI at a final concentration of 10 μM in 50 mM Tris-HCl pH 7.5, 50 mM NaCl buffer with an excitation wavelength of 415 nm and emission at 550 nm in a fluorimeter. Then, the amount of polyP was calculated as nmol of phosphate by means of the standard curve. At least three biological replicates were performed.
B. longum CECT 7894 was grown in medium MEI without glucose supplemented with i) breast milk (1% v/v); ii) LNT (1% w/v); iii) polyamines, in quantities found in breast milk: 70.0, 424.2 and 610.0 […] of putrescine, spermidine and spermine, respectively, and glucose (0.5% w/v); and iv) glucose (0.5% w/v) as positive control. Growth (OD550) and polyP production were determined after 6 and 16 h of incubation.

[2] = Stability of the strain in final product (plate counting of cfus, Zone II storage); assay type: physicochemical; details: 25° C., 60% RH
Method: The product was packaged in glass amber bottles and stored under Zone II conditions (25° C., 60% Relative Humidity (RH)). […] Results were expressed in LOG (cfus). Trend line was obtained and predicted cfus at 12 months were estimated. Fold and log reduction comparing cfus between 0 and 12 months were calculated.

[3] = test system: Caco-2 intestinal epithelial cells; experiment: Adhesion to the intestinal epithelium in vitro; assay type: cell-based; details: Caco-2 monolayers, MOI 1:5, 1 h at 37° C., % of LOG cfu/mL
Method: Adhesion to the intestinal epithelium was studied in vitro using Caco-2 intestinal epithelial cells. Bacterial suspensions were added to Caco-2 monolayers (Multiplicity of infection (MOI) 1:5 cells to probiotic) and to wells without Caco-2 cells as controls. After 1 h of incubation at 37° C., medium was removed, cells were detached, and suspensions recovered. Bacteria were enumerated in the obtained suspension by serial dilutions and plate count. Bacteria in the medium of the control wells were also quantified. B. longum subsp. longum ATCC 15707 was used as quality control with a known adhesion percentage of 47-55.

[4] = test system: polyP; experiment: PolyP amount in culture supernatants (extracellular); details: 16 h
Method: B. longum CECT 7894 was grown in MEI medium and Low Phosphate (LP) medium. The last medium has the same composition as MEI but without the addition of polyP precursors (K2HPO4 and KH2PO4), thus the strain cannot produce high amounts of polyP. After 16 h growth cultures were centrifuged and supernatants collected, filtered, and adjusted to neutral pH. PolyP amounts were measured as described in EXAMPLE 1.

[5] = test system: Caco-2 cells monolayer; experiment: Barrier integrity (TEER) and permeability (Papp of Lucifer Yellow) of Caco-2 monolayer; assay type: cell-based; details: Caco-2, 72 h apical exposure to high-polyP supernatant (MEI culture) vs low-polyP supernatant and controls
Method: Integrity of Caco-2 cells monolayer was evaluated by measuring transepithelial electrical resistance (TEER) and permeability by the apparent permeability coefficients (Papp) of the paracellular transport marker Lucifer Yellow.
Caco-2 cells were seed in porous membrane inserts with apical (upper) and basolateral (lower) compartments. Medium Essential Medium Eagle (MEM) was added to both compartments. Cells were treated with supernatants of B. longum CECT 7894 grown in MEI and LP media. Additional cells were treated with MEM, non-fermented MEI and LP media and used as controls.
After 72 h of treatment, TEER and permeability were determined. TEER was measured with a Millicell®-ERS voltammeter. For the permeability assay, Lucifer Yellow was added to the apical compartment. At 15, 30, 45, 60, 90 and 120 min, aliquots were taken from the basolateral compartment and the fluorescence of the Lucifer Yellow transported was measured with a fluorescence microplate reader at excitation/emission wavelengths of 485/520 nm.

[6] = test system: HSP27; experiment: HSP27 production by Western blot; assay type: cell-based; details: Caco-2, 16 h, high-polyP supernatant (MEI) vs low-polyP supernatant (LP); normalized to β-actin
Method: The production of HSP27 was studied in Caco-2 intestinal epithelial cells in confluence by Western blot assay as described by Alcántara et al., 2018 with some modifications. Bacterial supernatants were added to the cell cultures and incubation proceeded for 16 h. MEI and LP media were used as controls. To recover HSP27, cells were lysed with […] and boiled for 5 min. Proteins were separated in SDS-PAGE gel and then transferred to a nylon membrane (blot). The blots were incubated with a rabbit polyclonal anti-HSP27 serum or with a mouse monoclonal anti-β-actin antibody (protein used for normalization). After washing, secondary antibodies peroxidase-conjugated anti-rabbit IgG and anti-mouse IgG, respectively, were used. Blots images were captured, and proteins were quantified in an Imagin 680 system.

[7] = test system: Zonula ocludens-1 (ZO1); experiment: Expression of tight junction genes by qPCR: ZO1; assay type: cell-based; details: Caco-2, 16 h, high-polyP vs low-polyP supernatant
Method: (§1) Caco-2 cells were exposed for 16 h to supernatants of B. longum CECT 7894 grown in MEI and LP media. Then, cells were recovered, and RNA extracted with TRIZOL reagent. cDNA was obtained from RNA using SuperScript VILO cDNA synthesis kit. Quantitative PCR (qPCR) reactions were performed with SYBR Green in the conditions indicated by manufacturer. Expression of tight junction proteins Zonula ocludens-1 (ZO1), Junctional adhesion protein-1 (JAM1) and occluding was quantified. Expression of 18S rRNA and GADPH genes were used for normalization.

[8] = test system: Junctional adhesion protein-1 (JAM1); experiment: Expression of tight junction genes by qPCR: JAM1; assay type: cell-based; details: Caco-2, 16 h, high-polyP vs low-polyP supernatant
Method: as §1

[9] = test system: Occludin; experiment: Expression of tight junction genes by qPCR: occludin; assay type: cell-based; details: Caco-2, 16 h, high-polyP vs low-polyP supernatant
Method: as §1

[10] = test system: dextran sulfate sodium (DSS)-induced colitis; details: mice, combined with infliximab; cited from earlier work

Bifidobacterium longum subsp. longum KABP-042 (CECT 7894)
times more polyP than B. scardovii BAA-773 ([1]; 6 h): 140 times
times more polyP than L. plantarum WCFS1 ([1]; 6 h values (12.7 vs 230.9 nmol)): 18 times
PolyP 6 h, Polyamines ([1]; MEI + polyamines (putrescine, spermidine, spermine) + glucose 0.5%, 6 h): 111.0 nmol
PolyP 16 h, Polyamines ([1]; MEI + polyamines + glucose 0.5%, 16 h): 48.6 nmol
PolyP 6 h ([1]; MEI or MRScys, inoculated at OD 0.1, 6 h of growth, nmol of phosphate): 230.9 nmol
PolyP 16 h ([1]; MEI or MRScys, inoculated at OD 0.1, 16 h of growth, nmol of phosphate): 258.3 nmol
PolyP 6 h, Control (glucose) ([1]; MEI with glucose 0.5%, 6 h): 110.2 nmol
PolyP 16 h, Control (glucose) ([1]; MEI with glucose 0.5%, 16 h): 70.2 nmol
PolyP 6 h, LNT ([1]; MEI without glucose + LNT 1% w/v, 6 h): 117.0 nmol
PolyP 16 h, LNT ([1]; MEI without glucose + LNT 1% w/v, 16 h): 145.0 nmol
PolyP 6 h, Breast milk ([1]; MEI without glucose + breast milk 1% v/v, 6 h): 18.5 nmol
PolyP 16 h, Breast milk ([1]; MEI without glucose + breast milk 1% v/v, 16 h): 2.0 nmol
LOG (cfus) estimated at 12 months ([2]; final product in sunflower oil, trend line from 0-6 months): 9.01 LOG (cfus)
LOG loss over 12 months ([2]; final product, 0 vs 12 months): ~0.5 LOG
Adhesion to intestinal epithelium (%) [3]: 70.8%
Adhesion to intestinal epithelium (%) ([3]; listed as B. longum subsp. longum KABP042 (CECT 7894)): 70.8%
PolyP amount in supernatant, MEI medium ([4]; high phosphate (MEI medium)): 2.24 nmol
PolyP amount in supernatant, LP medium ([4]; low phosphate (LP medium)): 0.22 nmol
transepithelial electrical resistance (TEER) [5]: higher TEER
production of HSP27 [6]: significantly higher production of HSP27
expression of tight junction protein ZO1 [7]: induced
expression of tight junction protein JAM1 [8]: induced
expression of tight junction protein Occludin [9]: induced
effect on efficacy of infliximab in DSS-induced colitis [10]: improved the efficacy of infliximab
